These results are taken from US20250298027A1, “METHOD OF EVALUATING SMALL MOLECULE DISTRIBUTION USING TELLUROPHENE ANALOGUES” (THE GOVERNING COUNCIL OF THE UNIVERSITY OF TORONTO, priority 2022, published 2025).

One assay concerns HL-60 cells. The experiment in a line: WST-1 viability assay in HL-60 cells. Format: cell-based. To be noted: Homo sapiens, HL-60, 24 h, read-out: inhibition of proliferation of HL-60 cells. On the procedure: The toxicity of 1 was compared to teniposide in HL-60 cells after incubation for 24 hours using a WST-1 viability assay.
WST-1 metabolic cytotoxicity assay: HL-60 cells (ATCC® CCL-240TM) were maintained in DMEM media with 2 mM L-glutamine (Gibco) supplemented with 20% calf serum and 100× dilution of penicillin-streptomycin solution (Gibco). Cells were maintained at 37° C. in a humidified atmosphere of 5% CO2 in air. HL-60 cells (100 pL) were seeded into a 96 well clear at a density of 5×10^5 cells/mL. Cells were treated with either DMSO or appropriate inhibitor from DMSO stocks. […] Cells were incubated for 24 h at 37° C. under a 5% CO2 atmosphere. WST-1 reagent (10 pL; Roche Diagnostics, 05015944001) was added to each well and gently mixed by pipetting. Cells were incubated for 1 h at 37° C. under 5% CO2 atmosphere. UV-vis absorbance measurements of each well at 450 nm was recorded using a TECAN Safire 2 plate reader. Data was background corrected against wells that contained cell growth media without cells and WST-1. Experiment was performed in triplicate.
(In general: Formazan colour is commonly taken as a measure of viable cells.)

Another assay deals with T1, Top2 (Homo sapiens, UniProt P11388).
T1 construct: purchased TopoGEN, Inc
The experiment in a line: Top2 decatenation assay using kinetoplast DNA. The class given is biochemical. On the procedure: The relative Top2 inhibitory activity of 1 in comparison to teniposide was evaluated in decatenation assays using kinetoplast DNA (kDNA). Decatenation of the DNA, catalyzed by Top2, can be readily resolved using agarose gel electrophoresis.
Top2 decatenation assay: The assay was performed according to manufacturer's protocol (TopoGEN, Inc.). The total reaction volume was 20 μL of assay buffer (120 mM KCl, 50 mM Tris-HCl, 10 mM MgCl2, 0.5 mM DTT, 0.5 mM ATP, and 30 μg/mL BSA) and 120 ng of kinetoplast DNA (kDNA) substrate. One unit of TopoII enzyme in was added to reaction microfuge tubes in the presence or absence of inhibitor. The reaction was incubated for 30 min at 37° C. The reaction was stopped by addition of 5 μL of stop buffer (5% sarkosyl, 0.025% bromophenolblue, and 50% glycerol). The samples were then analyzed using electrophoresis using a 1% agarose gel in Tris-borate-EDTA buffer with 0.5 pg/mL ethidium bromide stain. Gels were imaged using Syngene G: Box Gel Imager (Chemi-XT4 GENESys software with preset for ethidium bromide stained agarose gels). Band intensities were analyzed using ImageJ software.

T1 sequence (P11388 whole entry): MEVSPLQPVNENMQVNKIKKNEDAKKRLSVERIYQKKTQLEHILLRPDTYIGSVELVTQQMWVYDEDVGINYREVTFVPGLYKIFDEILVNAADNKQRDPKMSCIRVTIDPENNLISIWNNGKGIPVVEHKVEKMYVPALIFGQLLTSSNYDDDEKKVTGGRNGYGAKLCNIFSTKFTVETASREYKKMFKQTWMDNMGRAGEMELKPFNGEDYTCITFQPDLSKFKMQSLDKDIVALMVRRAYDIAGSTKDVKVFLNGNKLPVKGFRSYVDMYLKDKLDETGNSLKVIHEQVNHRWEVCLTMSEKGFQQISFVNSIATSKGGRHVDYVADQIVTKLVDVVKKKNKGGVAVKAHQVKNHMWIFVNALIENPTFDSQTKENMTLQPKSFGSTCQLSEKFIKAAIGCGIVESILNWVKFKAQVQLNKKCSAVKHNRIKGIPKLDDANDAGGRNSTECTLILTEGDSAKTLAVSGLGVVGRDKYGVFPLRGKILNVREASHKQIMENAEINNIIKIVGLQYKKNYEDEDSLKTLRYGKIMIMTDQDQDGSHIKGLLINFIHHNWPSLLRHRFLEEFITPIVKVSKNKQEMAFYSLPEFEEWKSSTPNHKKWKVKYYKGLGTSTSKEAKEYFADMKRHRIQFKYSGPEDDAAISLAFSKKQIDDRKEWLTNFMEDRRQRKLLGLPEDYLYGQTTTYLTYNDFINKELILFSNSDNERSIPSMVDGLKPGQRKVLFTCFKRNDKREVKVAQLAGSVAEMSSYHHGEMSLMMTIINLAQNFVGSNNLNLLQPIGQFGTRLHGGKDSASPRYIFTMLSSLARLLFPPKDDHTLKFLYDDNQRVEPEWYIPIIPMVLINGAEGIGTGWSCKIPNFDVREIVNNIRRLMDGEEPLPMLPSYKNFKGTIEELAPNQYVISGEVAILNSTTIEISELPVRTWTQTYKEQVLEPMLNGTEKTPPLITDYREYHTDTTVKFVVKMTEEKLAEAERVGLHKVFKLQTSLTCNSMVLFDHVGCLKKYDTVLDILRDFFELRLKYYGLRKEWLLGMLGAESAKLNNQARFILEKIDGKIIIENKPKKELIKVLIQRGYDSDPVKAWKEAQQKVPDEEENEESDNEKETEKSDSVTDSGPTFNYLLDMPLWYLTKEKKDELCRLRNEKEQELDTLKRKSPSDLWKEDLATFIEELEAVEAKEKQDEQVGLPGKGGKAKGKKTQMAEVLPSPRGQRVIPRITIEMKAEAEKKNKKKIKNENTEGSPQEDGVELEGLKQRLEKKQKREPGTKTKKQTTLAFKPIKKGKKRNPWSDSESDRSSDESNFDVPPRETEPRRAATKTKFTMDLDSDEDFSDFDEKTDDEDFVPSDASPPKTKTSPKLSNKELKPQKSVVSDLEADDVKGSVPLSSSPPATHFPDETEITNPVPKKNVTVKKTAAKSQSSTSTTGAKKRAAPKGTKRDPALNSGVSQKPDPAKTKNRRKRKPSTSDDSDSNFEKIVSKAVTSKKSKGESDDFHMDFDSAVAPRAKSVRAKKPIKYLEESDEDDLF

`COc1cc([C@@H]2c3cc4c(cc3[C@@H](OC3OC5COC(c6ccc[te]6)OC5C(O)C3O)[C@H]3COC(=O)C23)OCO4)cc(OC)c1O` (stereo partly drawn) [Compound 1, Tellurium-labelled teniposide]: the inhibition at 50 µM in the assay with HL-60 cells is at most 60%. In addition, the IC50 on Top2 came to 5.6 µM. At Top2 (5, 10, 25 and 50 μM), the “inhibition of the decatenation reaction” value was “dose-dependent inhibition”.

The IC50 is the concentration that gives 50% inhibition.
